Values of other authors as cited in patent US6013628A, “Method for treating conditions of the eye using polypeptides” (Regents of the University of Minnesota, priority 1995, dated 2000).

Tested on: retinal pigmented epithelial cells
Settings: Avery et al. 1986; cited from earlier work

## Arg-Gly-Asp-Ser (RGDS)
  Adhesion of retinal pigmented epithelial cells to fibronectin, type I collagen, type II collagen and lens capsule basement membrane: inhibit the adhesion
